Measured values reported in patent US20080038809A1, “ISOLATED LECTIN POLYPEPTIDES CONSISTING OF TRUNCATED […] UDP-GalNAc:POLYPEPTIDE N- ACETYLGALACTOSAMINYLTRANSFERASES” (GLYCOZYM APS, priority 2002, published 2008).
Where two headings read alike, the source gives them in different places.

Tests used:
[1] = tested on: T, Tn and sialyl-Tn in HT-29 MTX cells; experiment: O-linked mucin carbohydrate structures T, Tn and sialyl-Tn in HT-29 MTX cells by immuno-histochemistry; assay type: cell-based, human; details: 5 mM, compared to controls
Source text: In order to evaluate GalNAcβ-benzyl as an inhibitor of mucin glycosylation and secretion we used the cultured colon carcinoma cells of mucin secreting phenotypes: HT-29 metotrexate (MTX) cells selected from the HT-29 cell line by culture in the presence of MTX (kind gift from G. Huet, France). The HT-29 MTX cells were selected to yield a goblet cell like phenotype with constitutive production of MUC5AC. In order to ensure proper goblet cell differentiation the HT29MTX cell line were continuously grown up to 21 days in the presence of 5 mM GalNAcα-benzyl, 5 mM GalNAcβ-benzyl, 5 mM GlcNAcα-benzyl and without inhibitor using culture conditions as described in Hennebicq-Reig et al. (Permanent exposure of mucin-secreting HT-29 cells to benzyl-N-acetyl-alpha-D-galactosaminide induces abnormal O-glycosylation of mucins and inhibits constitutive and stimulated MUC5AC secretion. Biochem J. 1998; 334:283-95). […] Furthermore the viscosity of the media from cells with and without inhibitor was evaluated using viscosity micro-measurement.

[2] = tested on: core 1 α2-3sialyltransferase ST3Gal-I; details: cited from earlier work
[3] = biological target: human GalNAc-T4 (UDP-GalNAc:polypeptide N-acetylgalactosaminyltransferase T4) isolated truncated lectin domain (T4ld), HIS-tagged, amino acid residues 405-578 o (Homo sapiens, UniProt Q8N4A0); experiment: biochemical; assay type: binding; details: read-out: Concentration required for 50% inhibition (IC50), binding to GalNAc-MUC1 glycopeptide
Sequence of human GalNAc-T4 (UDP-GalNAc:polypeptide N-acetylgalactosaminyltransferase T4) isolated truncated lectin domain (T4ld), HIS-tagged, amino acid residues 405-578 o (Q8N4A0 405-578): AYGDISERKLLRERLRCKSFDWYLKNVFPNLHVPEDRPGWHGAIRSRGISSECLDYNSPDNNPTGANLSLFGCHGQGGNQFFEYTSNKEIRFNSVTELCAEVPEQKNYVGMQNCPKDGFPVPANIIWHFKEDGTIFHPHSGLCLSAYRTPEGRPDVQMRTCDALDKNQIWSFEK
Source text: (§1) In order to minimize the size and functional complexity of GalNAc-transferase lectins to be used as probes for binding studies, we used multiple sequence alignment analysis to predict and design suitable expression constructs for isolated lectin domains (FIG. 2). In the present invention a direct binding assay was developed using isolated lectin domains of GalNAc-T4 and -T2 with minimal size (FIG. 5). […] The lectin Helix Pomatia (HP) was used as a control plant lectin with known binding specificity for […].
(§2) Direct binding ELISA assay was developed as follows: Polystyrene microtiter plates (Maxisorb, Nunc, Denmark) were coated with peptides or enzymatically glycosylated glycopeptides in PBS overnight at 4° C. Plates were washed and blocked with 0.1% Tween20 and 0.2% BSA in PBS for 1 h at room temperature, followed by incubation with biotinylated proteins in PBS with 0.05% Tween20 for 2 h at room temperature. After four washes with PBS, plates were incubated with 1:2,000 dilution streptavidin-HRP (Sigma) in PBS for 30 min at room temperature and washed four times with PBS. Development was performed with 0.5 mg/ml o-phenylenediamine and 0.02% H2O2 at room temperature for 15 min, and reaction stopped by adding 100 μl/well of 0.5 N H2SO4. Competitive inhibition assays were done at end-point titers of GalNAc-transferase proteins with one hour preincubations with inhibitor.
(§3) In binding studies using lectins without biotinylation antibodies to the HIS-tag and the T7-tag, or in some experiments antibodies raised to GalNAc-T2 and -T4 enzymes were used to detect binding.
(§4) Inhibition experiments were used to further define the binding specificity of GalNAc-T2 and -T4 secreted soluble enzymes as well as lectin domains compared to Helix Pomatia lectin (Table IV).
(§5) The ligand target used in this Example is a GalNAc-MUC1 glycopeptide produced enzymatically from synthetic peptides.

[4] = biological target: human GalNAc-T4 (UDP-GalNAc:polypeptide N-acetylgalactosaminyltransferase T4), secreted soluble enzyme (sT4), wild type (Homo sapiens, UniProt Q8N4A0); details: read-out: Concentration required for 50% inhibition (IC50), binding to GalNAc-MUC1 glycopeptide
Sequence of human GalNAc-T4 (UDP-GalNAc:polypeptide N-acetylgalactosaminyltransferase T4), secreted soluble enzyme (sT4), wild type (Q8N4A0 36-578 limits assumed): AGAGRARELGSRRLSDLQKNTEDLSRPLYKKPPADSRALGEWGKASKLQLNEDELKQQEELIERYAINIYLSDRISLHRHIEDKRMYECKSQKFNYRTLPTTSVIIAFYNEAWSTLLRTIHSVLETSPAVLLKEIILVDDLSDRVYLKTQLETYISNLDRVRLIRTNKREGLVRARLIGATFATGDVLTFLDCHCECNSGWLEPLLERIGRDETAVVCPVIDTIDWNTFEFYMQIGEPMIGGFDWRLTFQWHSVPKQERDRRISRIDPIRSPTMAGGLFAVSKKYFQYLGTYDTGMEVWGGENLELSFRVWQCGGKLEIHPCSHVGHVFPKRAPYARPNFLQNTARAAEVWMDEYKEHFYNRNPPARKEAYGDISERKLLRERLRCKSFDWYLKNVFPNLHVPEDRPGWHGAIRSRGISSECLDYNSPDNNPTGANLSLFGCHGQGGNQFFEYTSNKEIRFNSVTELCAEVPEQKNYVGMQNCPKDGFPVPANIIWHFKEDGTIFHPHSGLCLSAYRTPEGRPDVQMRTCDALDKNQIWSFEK
Description: (§6) The pH of 1 ml purified protein (0.3 mg/ml) in PBS was adjusted to pH 9 with 1 M NaOH and 40 μl N-hydroxy-succinimidobiotin (Sigma) dissolved in DMF (10 mg/ml) was added. The solution was mixed end-over-end for 2 hours at room temperature, and dialyzed three times against PBS and an equal volume of glycerol was added. The biotinylated proteins were stored at −20° C. in 50% glycerol until use.
(§7) Glycopeptides were purified by C-18 reverse phase HPLC. Peptides were custom synthesized by Neosystems (Strasbourg). Biotinylated Helix Pomatia lectin (HPA) was from KemEnTec (Denmark). Anti-MUC1 HMFG2 monoclonal antibody was a generous gift from Joyce Taylor-Papadimitriou.
as §2, with “Development was performed with 0.5 mg/ml o-phenylenediamine and 0.02% H2O2 at room temperature for 15 min, and reaction stopped by adding 100 μl/well of 0.5 N H2SO4. Competitive inhibition assays were done at end-point titers of GalNAc-transferase proteins with one hour preincubations with inhibitor.” left out

[5] = biological target: human GalNAc-T2 (UDP-GalNAc:polypeptide N-acetylgalactosaminyltransferase T2), secreted soluble enzyme (sT2), wild type (Homo sapiens, UniProt Q10471); experiment: biochemical; details: read-out: Concentration required for 50% inhibition (IC50), binding to GalNAc-MUC1 glycopeptide
Sequence of human GalNAc-T2 (UDP-GalNAc:polypeptide N-acetylgalactosaminyltransferase T2), secreted soluble enzyme (sT2), wild type (Q10471 52-571 limits assumed): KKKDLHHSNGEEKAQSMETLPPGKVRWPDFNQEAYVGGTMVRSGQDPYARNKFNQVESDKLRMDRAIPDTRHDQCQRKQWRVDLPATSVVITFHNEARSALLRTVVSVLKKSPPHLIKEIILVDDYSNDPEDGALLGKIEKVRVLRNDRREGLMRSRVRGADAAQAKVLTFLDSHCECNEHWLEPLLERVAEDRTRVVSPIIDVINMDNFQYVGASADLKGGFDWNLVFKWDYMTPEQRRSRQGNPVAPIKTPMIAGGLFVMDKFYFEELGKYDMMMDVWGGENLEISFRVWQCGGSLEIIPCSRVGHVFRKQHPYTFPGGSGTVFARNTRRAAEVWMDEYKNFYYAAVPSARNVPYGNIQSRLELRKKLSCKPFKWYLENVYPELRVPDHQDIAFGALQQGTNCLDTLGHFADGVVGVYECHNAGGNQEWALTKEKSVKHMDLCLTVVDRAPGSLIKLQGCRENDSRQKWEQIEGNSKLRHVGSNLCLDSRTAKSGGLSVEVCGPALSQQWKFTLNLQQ
Description: as §6, §7
as §2, with “Development was performed with 0.5 mg/ml o-phenylenediamine and 0.02% H2O2 at room temperature for 15 min, and reaction stopped by adding 100 μl/well of 0.5 N H2SO4. Competitive inhibition assays were done at end-point titers of GalNAc-transferase proteins with one hour preincubations with inhibitor.” left out

[6] = tested on: GalNAc-T2 and -T4 secreted soluble enzymes as well as lectin domains; experiment: Inhibition of GalNAc-transferase lectin binding to GalNAc-glycopeptides, statements on GalNAc-T2 and -T4 together; parameters: species or system human; details: enzymes and isolated lectins
Description: as §2
Lectins and antibodies to carbohydrates usually recognize the anomeric configuration of the sugar structures they bind.
as §4

[7] = biological target: T1, secreted soluble GalNAc-T2 (Homo sapiens, UniProt Q10471); experiment: Inhibition of secreted soluble GalNAc-T2 (sT2) binding to GalNAc-MUC1 glycopeptide, ELISA
T1 construct: 6xHis (N); thrombin cleavage site (N); T7 antibody site (N); made in house; host or cells: baculovirus (pAcGP67A), High Five insect cells
T1 sequence (Q10471 52-571 limits assumed): as above
Description: as §2, §4

[8] = biological target: Helix Pomatia lectin (HPA) (Helix pomatia, UniProt Q2F1K8); experiment: Inhibition of Helix Pomatia lectin (HPA) binding, ELISA
Sequence of Helix Pomatia lectin (HPA) (Q2F1K8 entry or part of it): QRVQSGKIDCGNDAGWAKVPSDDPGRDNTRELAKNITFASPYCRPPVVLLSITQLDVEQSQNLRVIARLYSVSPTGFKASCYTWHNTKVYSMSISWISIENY
Description: as §7, §2, §4

[9] = biological target: T2, secreted soluble GalNAc-T4 (Homo sapiens, UniProt Q8N4A0); experiment: Inhibition of secreted soluble GalNAc-T4 (sT4) binding to GalNAc-MUC1 glycopeptide, ELISA
T2 construct: 6xHis (N); thrombin cleavage site (N); T7 antibody site (N); made in house; host or cells: baculovirus (pAcGP67A), High Five insect cells
T2 sequence (Q8N4A0 36-578 limits assumed): as the sequence (Q8N4A0 36-578 limits assumed) above
Description: as §2, §4

GalNAc-T2 lectin domain = biological target: T3, GalNAc-T2 lectin domain (Homo sapiens, UniProt Q10471); experiment: Inhibition of GalNAc-T2 lectin domain (T2ld) binding to GalNAc-MUC1 glycopeptide, ELISA
T3 construct: comprises amino acid residues 408-571 of GALNT2; made in house; host or cells: baculovirus (pAcGP67-A), virus made in Sf9, protein produced in High Five insect cells
T3 sequence (Q10471 408-571): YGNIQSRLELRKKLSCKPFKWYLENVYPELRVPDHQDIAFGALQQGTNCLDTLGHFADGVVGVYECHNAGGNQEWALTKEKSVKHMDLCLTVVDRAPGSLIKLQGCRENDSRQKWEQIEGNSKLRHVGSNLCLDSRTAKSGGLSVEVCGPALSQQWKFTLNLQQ
Description: as §2, §3, §4

GalNAc-T4 lectin domain = biological target: T4, GalNAc-T4 lectin domain (Homo sapiens, UniProt Q8N4A0); experiment: Inhibition of GalNAc-T4 lectin domain (T4ld) binding to GalNAc-MUC1 glycopeptide, ELISA
T4 construct: comprises amino acid residues 405-578 of GALNT4; made in house; host or cells: baculovirus (pAcGP67-A), virus made in Sf9, protein produced in High Five insect cells
T4 sequence (Q8N4A0 405-578): as the sequence (Q8N4A0 405-578) above
Description: as §2, §3, §4

[10] = biological target: human GalNAc-T4 (UDP-GalNAc:polypeptide N-acetylgalactosaminyltransferase T4) isolated truncated lectin domain (T4ld), HIS-tagged, amino acid residues 405-578 of GALNT4 (Homo sapiens, UniProt Q8N4A0); experiment: biochemical; assay type: binding; details: binding to GalNAc-MUC1 glycopeptide
Sequence of human GalNAc-T4 (UDP-GalNAc:polypeptide N-acetylgalactosaminyltransferase T4) isolated truncated lectin domain (T4ld), HIS-tagged, amino acid residues 405-578 of GALNT4 (Q8N4A0 405-578): as above
Source text: as §1, §2, §3, §4, §5

## CC(=O)N[C@H]1[C@H](OCc2ccccc2)O[C@H](CO)[C@@H](O)[C@@H]1O [BzlβGlcNAc]
[1]
  O-linked mucin carbohydrate structures T, Tn and sialyl-Tn: upregulated

## CC(=O)N[C@H]1[C@@H](OCc2ccccc2)O[C@H](CO)[C@H](O)[C@@H]1O[C@@H]1O[C@H](CO)[C@H](O)[C@H](O)[C@H]1O [Galβ1-3GalNAcα-benzyl]
[2]
  substrate for ST3Gal-I: efficient substrate

## CC(=O)N[C@H]1[C@@H](Oc2ccccc2)O[C@H](CO)[C@H](O)[C@@H]1O [PhlαGalNAc]
[3]
  IC50: 5 mM
[4]
  IC50: 1 mM
[5]
  IC50: 5 mM

## CC(=O)N[C@H]1[C@@H](OP(=O)(O)OP(=O)(O)OC[C@H]2O[C@@H](n3ccc(=O)[nH]c3=O)[C@H](O)[C@@H]2O)O[C@H](CO)[C@H](O)[C@@H]1O [UDPαGalNAc, UDP-N-acetylgalactosamine]
[6]
  inhibition of GalNAc-T2 and -T4 lectin mediated binding, in words: not a significant inhibitor
[7]
  IC50: 65 mM
[8]
  inhibition of Helix Pomatia binding, in words: strong inhibitor
[9]
  IC50: 30 mM
GalNAc-T2 lectin domain
  IC50: > 100 mM
GalNAc-T4 lectin domain
  IC50: 50 mM

## CC(=O)N[C@H]1[C@H](Oc2ccc([N+](=O)[O-])cc2)O[C@H](CO)[C@H](O)[C@@H]1O [pNPβGalNAc]
[10]
  IC50: 8 mM
[7]; read-out: sT2: Concentration required for 50% inhibition (IC50)
  IC50: > 10 mM
GalNAc-T2 lectin domain; read-out: T2ld: Concentration required for 50% inhibition (IC50)
  IC50: > 10 mM
